Experimental data reported in BigSolDB 2.1.

CNC(=O)c1cc(Oc2ccc(NC(=O)Nc3ccc(Cl)c(C(F)(F)F)c3)c(F)c2)ccn1
solubility (mole fraction)
Conditions | 278.15 K | 283.15 K | 288.15 K | 293.15 K | 298.15 K | 303.15 K | 308.15 K | 313.15 K
in acetone | 0.0014 | 0.00173 | 0.00199 | 0.00247 | 0.00323 | 0.00375 | 0.00443 | 0.00526
in acetonitrile | 0.00014 | 0.000162 | 0.000168 | 0.000203 | 0.000248 | 0.000299 | 0.000381 | 0.000492
in ethanol | 0.000641 | 0.000677 | 0.000739 | 0.000865 | 0.000911 | 0.0011 | 0.00126 | 0.00145
in isopropanol | 0.000657 | 0.000679 | 0.000698 | 0.000769 | 0.000918 | 0.00109 | 0.00137 | 0.00161
in methanol | 0.000315 | 0.000351 | 0.00041 | 0.000422 | 0.000475 | 0.000581 | 0.000689 | 0.000797
in n-propanol | 0.000701 | 0.000769 | 0.000814 | 0.000908 | 0.00099 | 0.0012 | 0.00147 | 0.00172
